What was measured:
Erysiphe graminis [1] = assay: in vivo effect against powdery mildew on sprayed plants (Example 5, Table V); settings: triadimefon 50 WP, benomyl 50 WP, 6 days after infection
Protocol: (§1) The in vivo effect of various mixtures of triadimefon 50 WP and benomyl 50 WP was observed against powders mildew (Erysiphe graminis). The plants were grown in plots at 20° C., under a relative humidity of 98% for 7 days. The one-week old plant were then sprayed with the test composition and after drying were […] with Erysiphe graminis. After incubation for 6 days the results were evaluated.

Erysiphe graminis [2] = assay: in vivo effect against powdery mildew on sprayed plants (Example 6, Table VI); settings: fenapronil 25 EC, benomyl 50 WP, 6 days after infection
Protocol: as §1
The procedure described in Example 5 was used but fenapronil 25 EC and benomyl 50 WP were tested. The following results have been obtained.

various fungi = assay: interaction / activity against various fungi in vitro, overall result in words; assay type: cell-based
[3] = tested on: lipid and sterol synthesis; settings: mode of action; cited from earlier work
[4] = tested on: fungi which are sensitive to them; settings: Fritz et al. 1977; cited from earlier work
[5] = tested on: obligate parasites such as real powdery mildew, blight, rust; settings: cited from earlier work

## CCCCNC(=O)n1c(NC(=O)OC)nc2ccccc21 [benomyl, methyl 1-(butylcarbamoyl)-2-benzimidazolecarbamate]
Erysiphe graminis [1]; concentration 3%
  Extent of infection: 32.2%
Erysiphe graminis [1]; concentration 6%
  Extent of infection: 23.3%
Erysiphe graminis [1]; concentration 12%
  Extent of infection: 16.3%
Erysiphe graminis [2]; concentration 12 ppm
  Extent of infection: 78%
Erysiphe graminis [2]; concentration 25 ppm
  Extent of infection: 64%
Erysiphe graminis [2]; concentration 50 ppm
  Extent of infection: 56%

## CCCCC(C#N)(Cn1ccnc1)c1ccccc1 (stereo not drawn) [fenapronil, 1H-α-butyl-α-phenylimidazol-1-yl-propanenitrile]
Erysiphe graminis [2]; concentration 12 ppm
  Extent of infection: 43%
Erysiphe graminis [2]; concentration 25 ppm
  Extent of infection: 23%
Erysiphe graminis [2]; concentration 50 ppm
  Extent of infection: 14%
Various fungi
  activity alone: extremely potent alone and has a wide field of activity
[3]
  inhibition of lipid and sterol synthesis: inhibiting lipid and sterol synthesis

## CC(C)NC(=O)N1CC(=O)N(c2cc(Cl)cc(Cl)c2)C1=O [promidion, 3-(3,5-dichlorophenyl)-2,4-dioxo-1-(N-isopropyl)-imidazolinecarboxamide]
[4]
  accumulation of fatty acids and triglycerides: induce an accumulation of fatty acids and triglycerides

## CC(C)(C)C(=O)C(Oc1ccc(Cl)cc1)n1cncn1 (stereo not shown) [triadimefon, 1-(4-chlorophenoxy)-3,3-dimethyl-1-(1H)-(1,2,4-triazol-1-yl)buthan-2-one]
Erysiphe graminis [1]; concentration 3%
  Extent of infection: 73.5%
Erysiphe graminis [1]; concentration 6%
  Extent of infection: 66.0%
Erysiphe graminis [1]; concentration 12%
  Extent of infection: 40.6%
Various fungi
  activity alone: entirely ineffective against the fungi tested in vitro
[3]
  inhibition of lipid and sterol synthesis: inhibiting lipid and sterol synthesis
[5]
  activity against obligate parasites: effective against obligate parasites such as real powdery mildew, blight, rust

## C=CC1(C)OC(=O)N(c2cc(Cl)cc(Cl)c2)C1=O (stereo not shown) [vinclosolin, 3-(3,5-dichlorophenyl)-5-methyl-5-vinyl-1,3-oxazolidine-2,4-dione]
[4]
  accumulation of fatty acids and triglycerides: induce an accumulation of fatty acids and triglycerides
